Residues, ends and D or L forms follow the SMILES beside them.
Legend:
lymphocytes [1] = experiment: mixed lymphocyte test using spleen cells from treated mouse, [3H]TdR incorporation; format: in vivo, C3H/HeN mouse; details: printed: 1 μM of 11R-VEET; method b87: 10 mg/kg intraperitoneal
Protocol: Thereafter, the cells were placed on filter paper having a diameter of 1 cm and the radioactivity of [^3H]TdR incorporated into the cells was measured by a beta counter.

IL-2 gene = experiment: transcription of IL-2 gene in Jurkat cells stimulated with PMA and ionomycin, real-time quantitative RT-PCR; format: cell-based, human; details: 1 μM 11R-VEET
Protocol: Subsequently, 100 μl of RPMI containing 2 μM of phorbol 12-myristate 13-acetate (PMA) (available from Sigma-Aldrich Co.) and 40 μM of ionomycin (available from Sigma-Aldrich Co.) was added and culture was continued for 12 more hours. Then, the cells were recovered and using the obtained cells, the transcription amount of IL-2 gene was measured by the following real-time quantitative RT-PCR. In real-time quantitative RT-PCR, GAPDH, which is known as a housekeeping gene, was used as the inner standard substance.
RNeasy Mini Kit (available from QIAGEN K.K.) was used according to protocol and total RNA was extracted from the cells. Using the obtained total RNA, reverse transcription reaction was conducted by incubation at 22° C. for 10 minutes and then at 42° C. for 20 minutes.
Thereafter, using Light Cycler-Fast Start DNA Master SYBR Green I Kit (available from Roche Molecular Biochemicals), 20 μl of a mixed reaction solution ( 1/10 of the amount of the transcription product, 4 mM of MgCl2, 4 kinds of primers: 0.5 μM respectively, 2 μl of 10×Light Cycler-Fast Start DNA Master SYBR Green I) was prepared for amplification reaction. As the primer for human IL-2, the primer included in Competitive Quantitative RT-PCR Kit (available from Funakoshi Co., Ltd.) was used. […]

βTC6 cells [2] = experiment: insulin secretion of βTC6 cells (Mouse Insulin ELISA); format: cell-based; details: 11R-VEET 10, 100, 1000 or 10000 nM, 96 hours
Protocol: The medium was replaced with a fresh medium containing […] every 24 hours. After 96 hours, the medium was replaced with a fresh medium. Culture was conducted for 1 more hour and the culture supernatant was collected. For control, βTC6 cells were cultured in the same manner, except that a medium without […] was used. Subsequently, using the collected supernatant, the secreted insulin was analyzed using Mouse Insulin ELISA (TMB) Kit (available from Shibayagi Co., Ltd.) according to protocol.

transplanted beta cells = experiment: beta cell transplant in diabetic model mouse, survival of transplant by Kaplan-Meier; format: in vivo; details: 10 mg/kg intraperitoneally once a day after transplant, BALB/c donor, C3H/HeN diabetic recipient
Protocol: For the transplant, a 6 week old BALB/c mouse was used as the donor and a 6 week old C3H/HeN mouse was used as the recipient.
A diabetic model mouse was prepared by intraperitoneally injecting 220 mg/kg of streptozocin (available from Sigma-Aldrich Japan K.K.) to a C3H/HeN mouse. 6 days after the streptozocin injection, the mouse in which the glucose level exceeded 350 mg/dl was determined as being hyperglycemic.
Meanwhile, the spleen of the BALB/c mouse was taken out and after subjecting to discontinuous Ficoll density gradient centrifugation, beta cells were isolated by normal collagenase digestion.
About 500 of the isolated beta cells were transplanted under the capusula of the left kidney of the above diabetic model mouse. […] The glycemia was measured and when the level thereof exceeded 200 mg/dl for 2 consecutive days, transplant rejection was considered to have occurred.

lymphocytes [3] = experiment: mixed lymphocyte test, [3H]TdR incorporation; format: cell-based, mouse; details: 1 μM 11R-VEET
Protocol: Spleen cells were retrieved from a 6 to 8 week old C3H/HeN mouse and a 6 to 8 week old BALB/c mouse H-2d (available from Shimizu Laboratory Supplies Co., Ltd.). The BALB/c spleen cells were treated with mitomycin C (available from Kyowa Hakko Kogyo Co., Ltd.) and used as stimulating cells.
Subsequently, 5×10^5 of mixed cells obtained by mixing the above stimulating cells and the spleen cells derived from a C3H/HeN mouse in a ratio of 1:5 were added in each well and cultured for 90 hours in a carbon dioxide culture device set to 37° C. and carbon dioxide concentration of 5%. As control, the mixed cells were added to wells containing only a medium and cultured in the same manner.
Then, ^3H-methyl-thymidine (hereinafter referred to as [^3H]TdR, available from Amersham Pharmacia Biotech K.K.) of 0.5 μCi/well was added and culture was conducted for 6 hours. Thereafter, the cells were placed on filter paper having a diameter of 1 cm and the radioactivity of [^3H]TdR incorporated into the cells was measured by a beta counter (made by Beckman Coulter K.K.).

βTC6 cells [4] = experiment: proliferation of βTC6 cells, [3H]TdR incorporation; format: cell-based; details: 11R-VEET 10, 100, 1000 or 10000 nM
Protocol: The medium was replaced with a fresh medium containing […] every 24 hours. Subsequently, [^3H]TdR of 1 μCi/well was added and culture was conducted for 8 more hours. For control, βTC6 cells were cultured in the same manner except that a medium without […] was used. Thereafter, the cells were placed on filter paper having a diameter of 1 cm and the radioactivity of [^3H]TdR incorporated into the cells was measured by a beta counter.

[5] = system: IL-2 gene (transcription); experiment: half-life in T cells based on inhibitory activity to IL-2 transcription (time course in Jurkat cells); details: human
Protocol: Subsequently, 100 μl of RPMI containing 2 μM of PMA and 40 μM of ionomycin was added and culture was conducted further for 12 hours, 17 hours, 23 hours, 35 hours or 59 hours.
Subsequently, the relative RNA amount to GAPDH was measured by conducting RT-PCR and real-time quantitative RT-PCR and analysis in the same manner as in Example 3, except that the respective obtained cells were used as samples. The time shown in FIG. 2 refers to the total culture time.
Using 1 ml of 10% fetal bovine serum-containing RPMI containing 1 μM of FK 506, 1×10^5 Jurkat cells were cultured for 1 hour in a carbon dioxide culture device set to 37° C. and carbon dioxide concentration of 5%. Subsequently, 100 μl of RPMI containing 2 μM of PMA and 40 μM of ionomycin was added and culture was conducted further for 12 hours, 17 hours, 23 hours, 35 hours or 59 hours. Thereafter, RT-PCR and real-time quantitative RT-PCR were conducted in the same manner as in Example 3, except that the obtained culture cells were used.

11R-VEET: peptide comprising 11 consecutive arginine residues and VEET (MAGPPHIVEETGPHVI) with 3 glycine residues; SEQ ID NO. 4; negative control (RRRRRRRRRRRGGGMAGPPHIVEETGPHVI)
effect on proliferation of lymphocytes (cells from treated mouse) (lymphocytes [1]): not affected
effect on transcription level of IL-2 gene (IL-2 gene): did not affect
insulin secretion amount of βTC6 cells (βTC6 cells [2]): unaffected
survival rate of transplanted beta cells compared to control (transplanted beta cells): did not affect
effect on proliferation of lymphocytes (lymphocytes [3]): not affected
inhibitory effect to proliferation of βTC6 cells (βTC6 cells [4]): did not exhibit an inhibitory effect

CC[C@H](C)[C@H](NC(=O)[C@@H](NC(=O)[C@@H]1CCCN1C(=O)[C@H](Cc1c[nH]cn1)NC(=O)[C@@H]1CCCN1C(=O)CNC(=O)[C@H](C)NC(=O)[C@H](CCSC)NC(=O)CNC(=O)CNC(=O)CNC(=O)[C@H](CCCNC(=N)N)NC(=O)[C@H](CCCNC(=N)N)NC(=O)[C@H](CCCNC(=N)N)NC(=O)[C@H](CCCNC(=N)N)NC(=O)[C@H](CCCNC(=N)N)NC(=O)[C@H](CCCNC(=N)N)NC(=O)[C@H](CCCNC(=N)N)NC(=O)[C@H](CCCNC(=N)N)NC(=O)[C@H](CCCNC(=N)N)NC(=O)[C@H](CCCNC(=N)N)NC(=O)[C@@H](N)CCCNC(=N)N)C(C)C)C(=O)N[C@H](C(=O)N[C@H](C(=O)N[C@H](C(=O)NCC(=O)N1CCC[C@H]1C(=O)N[C@@H](Cc1c[nH]cn1)C(=O)N[C@@H](CCC(=O)O)C(=O)N[C@@H](CCC(=O)O)C(=O)O)[C@@H](C)O)[C@@H](C)CC)C(C)C [11R-VIVIT] (H-RRRRRRRRRRRGGGMAGPHPVIVITGPHEE-OH; N-terminus and C-terminus assumed)
half-life at 1 μM [5]: ~30 h

— patent publication US7659249B2, “Membrane-permeable NFAT inhibitory peptide” (Japan Science and Technology Agency, priority 2002, dated 2010)
